Converted amounts (≈) assume the structure as drawn. Read-outs that look alike come from different tables or passages of the source.
Experiments:
E. faecalis = assay: MIC against E. faecalis strains; type: cell-based; conditions: Enterococcus faecalis
S. pyogenes ATCC 49399 = assay: MIC against S. pyogenes; type: cell-based; conditions: Streptococcus pyogenes, ATCC49399
K. pneumoniae ATCC700603 = assay: MIC against K. pneumoniae; type: cell-based; conditions: Klebsiella pneumoniae; K. pneumoniae ATCC700603; read-out: MIC
[1] = test system: Clostridioides difficile infection; conditions: CDI patients; cited from earlier work
P. aeruginosa ATCC27853 = assay: MIC against P. aeruginosa; type: cell-based; conditions: Pseudomonas aeruginosa; P. aeruginosa ATCC27853; read-out: MIC
[2] = test system: C. difficile ATCC 43255 vegetative cells; assay: Mode of action by scanning electron microscopy (SEM); conditions: 8× MIC for 24 h
C. difficile strains = conditions: cited from earlier work

## Cc1ncc([N+](=O)[O-])n1CCO [MTZ, metronidazole]
E. faecalis
  MIC: > 256 µg/mL
E. faecalis; ATCC29212
  MIC: > 256 µg/mL
S. pyogenes ATCC 49399
  MIC: > 128 µg/mL
K. pneumoniae ATCC700603
  MIC: > 128 µg/mL
[1]
  recurrence of infection: 27%
P. aeruginosa ATCC27853
  MIC: > 128 µg/mL
[2]
  effect on vegetative cells by SEM: No obvious effect
C. difficile strains; 101 C. difficile strains
  IMIC50 (101 strains): 0.5 µg/mL
C. difficile strains; C. difficile 23828, resistant to FDX
  MIC: 0.5 µg/mL (≈ 2.92 µM)
C. difficile strains; C. difficile 24531, resistant to VAN
  MIC: 0.5 µg/mL (≈ 2.92 µM)
C. difficile strains; C. difficile 26675, resistant to MTZ
  MIC: 4 µg/mL (≈ 23.4 µM)
C. difficile strains; C. difficile BAA-1803
  MIC: 0.5 µg/mL (≈ 2.92 µM)
C. difficile strains; C. difficile BAA-1870
  MIC: 0.5 µg/mL (≈ 2.92 µM)
C. difficile strains; C. difficile strains of Table 4
  MIC50: 0.5 µg/mL (≈ 2.92 µM)
C. difficile strains; strain BAA-1803
  MIC: 0.5 µg/mL (≈ 2.92 µM)
C. difficile strains; strain BAA-1870
  MIC: 0.5 µg/mL (≈ 2.92 µM)
C. difficile strains; strain HM-745
  MIC: 0.5 µg/mL (≈ 2.92 µM)
C. difficile strains; strain HM-747
  MIC: 0.5 µg/mL (≈ 2.92 µM)
C. difficile strains; strain NR-13430
  MIC: 0.5 µg/mL (≈ 2.92 µM)
C. difficile strains; strain NR-13431
  MIC: 0.5 µg/mL (≈ 2.92 µM)
C. difficile strains; strain NR-13433
  MIC: 0.5 µg/mL (≈ 2.92 µM)
C. difficile strains; strain NR-13434
  MIC: 0.5 µg/mL (≈ 2.92 µM)
C. difficile strains; strain NR-13435
  MIC: 0.5 µg/mL (≈ 2.92 µM)
C. difficile strains; strain NR-13436
  MIC: 0.5 µg/mL (≈ 2.92 µM)
C. difficile strains; strain NR-13437
  MIC: 0.5 µg/mL (≈ 2.92 µM)
C. difficile strains; strain NR-13438
  MIC: 0.5 µg/mL (≈ 2.92 µM)
C. difficile strains; strain NR-13553
  MIC: 0.5 µg/mL (≈ 2.92 µM)
C. difficile strains; strain NR-32883
  MIC: 0.5 µg/mL (≈ 2.92 µM)
C. difficile strains; strain NR-32884
  MIC: 0.5 µg/mL (≈ 2.92 µM)
C. difficile strains; strain NR-32885
  MIC: 0.5 µg/mL (≈ 2.92 µM)
C. difficile strains; strain NR-32886
  MIC: 0.5 µg/mL (≈ 2.92 µM)
C. difficile strains; strain NR-32888
  MIC: 0.5 µg/mL (≈ 2.92 µM)
C. difficile strains; strain NR-32890
  MIC: 0.5 µg/mL (≈ 2.92 µM)
C. difficile strains; strain NR-32892
  MIC: 0.5 µg/mL (≈ 2.92 µM)
C. difficile strains; strain NR-32897
  MIC: 0.5 µg/mL (≈ 2.92 µM)
C. difficile strains; strain NR-32903
  MIC: 0.5 µg/mL (≈ 2.92 µM)
C. difficile strains; strain NR-32904
  MIC: 0.5 µg/mL (≈ 2.92 µM)
C. difficile strains; strain NR-49277
  MIC: 0.5 µg/mL (≈ 2.92 µM)
C. difficile strains; strain NR-49278
  MIC: 0.5 µg/mL (≈ 2.92 µM)
C. difficile strains; strain NR-49282
  MIC: 0.5 µg/mL (≈ 2.92 µM)
C. difficile strains; strain NR-49283
  MIC: 0.5 µg/mL (≈ 2.92 µM)
C. difficile strains; strain NR-49284
  MIC: 0.5 µg/mL (≈ 2.92 µM)
C. difficile strains; strain NR-49285
  MIC: 0.5 µg/mL (≈ 2.92 µM)
C. difficile strains; strain NR-49287
  MIC: 0.5 µg/mL (≈ 2.92 µM)
C. difficile strains; strain NR-49288
  MIC: 0.5 µg/mL (≈ 2.92 µM)
C. difficile strains; strain NR-49289
  MIC: 0.5 µg/mL (≈ 2.92 µM)
C. difficile strains; strain NR-49293
  MIC: 0.5 µg/mL (≈ 2.92 µM)
C. difficile strains; strain NR-49295
  MIC: 0.5 µg/mL (≈ 2.92 µM)
C. difficile strains; strain NR-49296
  MIC: 0.5 µg/mL (≈ 2.92 µM)
C. difficile strains; strain NR-49297
  MIC: 0.5 µg/mL (≈ 2.92 µM)
C. difficile strains; strain NR-49299
  MIC: 0.5 µg/mL (≈ 2.92 µM)
C. difficile strains; strain NR-49300
  MIC: 0.5 µg/mL (≈ 2.92 µM)
C. difficile strains; strain NR-49301
  MIC: 0.5 µg/mL (≈ 2.92 µM)
C. difficile strains; strain NR-49303
  MIC: 0.5 µg/mL (≈ 2.92 µM)
C. difficile strains; strain NR-49304
  MIC: 0.5 µg/mL (≈ 2.92 µM)
C. difficile strains; strain NR-49306
  MIC: 0.5 µg/mL (≈ 2.92 µM)
C. difficile strains; strain NR-49307
  MIC: 0.5 µg/mL (≈ 2.92 µM)
C. difficile strains; strain NR-49308
  MIC: 0.5 µg/mL (≈ 2.92 µM)
C. difficile strains; strain NR-49311
  MIC: 0.5 µg/mL (≈ 2.92 µM)
C. difficile strains; strain NR-49312
  MIC: 0.5 µg/mL (≈ 2.92 µM)
C. difficile strains; strain NR-49313
  MIC: 0.5 µg/mL (≈ 2.92 µM)
C. difficile strains; strain NR-49314
  MIC: 0.5 µg/mL (≈ 2.92 µM)
C. difficile strains; strain NR-49315
  MIC: 0.5 µg/mL (≈ 2.92 µM)
C. difficile strains; strain NR-49316
  MIC: 0.5 µg/mL (≈ 2.92 µM)
C. difficile strains; strain NR-49317
  MIC: 0.5 µg/mL (≈ 2.92 µM)
C. difficile strains; strain NR-49319
  MIC: 0.5 µg/mL (≈ 2.92 µM)
C. difficile strains; strain NR-49320
  MIC: 0.5 µg/mL (≈ 2.92 µM)
C. difficile strains; strain NR-49321
  MIC: 0.5 µg/mL (≈ 2.92 µM)
C. difficile strains; strain NR-49325
  MIC: 0.5 µg/mL (≈ 2.92 µM)
C. difficile strains; strain NR-49326
  MIC: 0.5 µg/mL (≈ 2.92 µM)
C. difficile strains; strain NR-49327
  MIC: 0.5 µg/mL (≈ 2.92 µM)
C. difficile strains; strain RMA23691
  MIC: 0.5 µg/mL (≈ 2.92 µM)
C. difficile strains; strain RMA23828
  MIC: 0.5 µg/mL (≈ 2.92 µM)
C. difficile strains; strain RMA24531
  MIC: 0.5 µg/mL (≈ 2.92 µM)
C. difficile strains; strain RMA26675
  MIC: 4 µg/mL (≈ 23.4 µM)
C. difficile strains; strain RMA27081
  MIC: 0.5 µg/mL (≈ 2.92 µM)
C. difficile strains; strain RMA27173
  MIC: 4 µg/mL (≈ 23.4 µM)
